# Experimental data taken from ChEMBL document CHEMBL5523756, “Molecular Transformers: Adaptive Multitarget Ligands for Esterase-Induced Transition from Analgesics to Anesthetics” (J Med Chem, 2024).
# Calls of active or inactive are those of the source. No cut-off for these calls is given here.
# Experiments:
# [1] = system: Rattus norvegicus; test: Analgesic activity in Sprague-Dawley rat model of thermal nociception assessed as increase in hind-paw withdrawal latency at 19 mg/kg administered as continuous infusion followed by maintenance at 3.25 mg/kg/min for 0 to 20 mins, 2.5 mg/kg/min for 20 to 30 mins and 2 mg/kg/min for 30 to 60 mins; assay type: functional, organism-based; details: route par, TDE = time-dependent effect
# [2] = Toxicity in ICR mouse assessed as histopathological changes in heart at 1.5 times ED50, iv administered as single dose and measured after 14 days by H and E staining based analysis; assay type: organism-based; details: in vivo, 336 h, time 14 day
# [3] = Toxicity in Sprague-Dawley rat assessed as change in P-R interval at 19 mg/kg administered as continuous infusion followed by maintenance at 3.25 mg/kg/min for 0 to 20 mins, 2.5 mg/kg/min for 20 to 30 mins and 2 mg/kg/min for 30 to 60 mins and measured between 30 to 50 mins by electrocardiogram recording; assay type: organism-based; details: in vivo, other, time 30-50 min, route par
# [4] = target: T1, Sodium channel protein type 10 subunit alpha (Homo sapiens, UniProt Q9Y5Y9); test: Inhibition of Nav1.8 channel (unknown origin) at half inactivation state at -120 mV conditioning pulse by voltage clamp electrophysiological recording
# [5] = Stability of compound in 0.1M PBS at 1 mg/ml measured upto 360 mins by HPLC analysis; assay type: physicochemical; details: buffer, 6 h
# [6] = (§1) Toxicity in Sprague-Dawley rat assessed as effect on amount of respiration at 19 mg/kg administered as continuous infusion followed by maintenance at 3.25 mg/kg/min for 0 to 20 mins, 2.5 mg/kg/min for 20 to 30 mins and 2 mg/kg/min for 30 to 60 mins and measured every 5 mins for 60 mins by whole-body plethysmography; assay type: organism-based; details: in vivo, other, 1 h, route par
# [7] = Stability in mouse plasma assessed as half life at 1 mg/ml measured upto 360 mins by HPLC analysis; assay type: ADME, cell-free
# [8] = target: T2, Sodium channel protein type 5 subunit alpha (Homo sapiens, UniProt Q14524); test: Inhibition of Nav1.5 channel (unknown origin) at resting state at -120 mV conditioning pulse by voltage clamp electrophysiological recording; assay type: toxicity
# [9] = target: T2, Sodium channel protein type 5 subunit alpha; test: Inhibition of Nav1.5 channel (unknown origin) at half inactivation state at -120 mV conditioning pulse by voltage clamp electrophysiological recording; assay type: toxicity
# [10] = Toxicity in Sprague-Dawley rat assessed as alterations in QRS complex duration at 19 mg/kg administered as continuous infusion followed by maintenance at 3.25 mg/kg/min for 0 to 20 mins, 2.5 mg/kg/min for 20 to 30 mins and 2 mg/kg/min for 30 to 60 mins by electrocardiogram recording; assay type: organism-based; details: in vivo, other, 1 h, route par
# [11] = Toxicity in Sprague-Dawley rat assessed as histopathological changes in kidney at 19 mg/kg administered as continuous infusion followed by maintenance at 3.25 mg/kg/min for 0 to 20 mins, 2.5 mg/kg/min for 20 to 30 mins and 2 mg/kg/min for 30 to 60 mins and measured after 14 days by H and E staining based analysis; assay type: organism-based; details: in vivo, other, 336 h, route par, time 14 day
# [12] = Toxicity in ICR mouse assessed as histopathological changes in liver at 1.5 times ED50, iv administered as single dose and measured after 14 days by H and E staining based analysis; assay type: organism-based; details: in vivo, 336 h, time 14 day
# [13] = as §1, with “respiratory frequency” for “amount of respiration”; assay type: organism-based; details: in vivo, other, 1 h, route par
# [14] = Toxicity in Sprague-Dawley rat assessed as effect on creatinine level at 19 mg/kg administered as continuous infusion followed by maintenance at 3.25 mg/kg/min for 0 to 20 mins, 2.5 mg/kg/min for 20 to 30 mins and 2 mg/kg/min for 30 to 60 mins; assay type: organism-based; details: in vivo, other, 1 h, route par
# [15] = target: T1, Sodium channel protein type 10 subunit alpha; test: Inhibition of Nav1.8 channel (unknown origin) at resting state at -120 mV conditioning pulse by voltage clamp electrophysiological recording
# [16] = Toxicity in Sprague-Dawley rat assessed as effect on gastrointestinal function by measuring ink peristalsis at 19 mg/kg administered as continuous infusion followed by maintenance at 3.25 mg/kg/min for 0 to 20 mins, 2.5 mg/kg/min for 20 to 30 mins and 2 mg/kg/min for 30 to 60 mins and further administered with ink suspension and measured after 10 mins; assay type: organism-based; details: in vivo, other, 1.167 h, route par, time 70 min
# [17] = Toxicity in ICR mouse assessed as histopathological changes in kidney at 1.5 times ED50, iv administered as single dose and measured after 14 days by H and E staining based analysis; assay type: organism-based; details: in vivo, 336 h, time 14 day
# [18] = Stability in rat plasma assessed as half life at 1 mg/ml measured upto 360 mins by HPLC analysis; assay type: ADME, cell-free
# [19] = target: T3, CYP1A2 (Homo sapiens, UniProt P05177); test: Inhibition of CYP1A2 (unknown origin) using phenacetin as substrate at 10 uM relative to control; assay type: ADME; details: probe phenacetin
# T3 sequence (P05177 whole entry): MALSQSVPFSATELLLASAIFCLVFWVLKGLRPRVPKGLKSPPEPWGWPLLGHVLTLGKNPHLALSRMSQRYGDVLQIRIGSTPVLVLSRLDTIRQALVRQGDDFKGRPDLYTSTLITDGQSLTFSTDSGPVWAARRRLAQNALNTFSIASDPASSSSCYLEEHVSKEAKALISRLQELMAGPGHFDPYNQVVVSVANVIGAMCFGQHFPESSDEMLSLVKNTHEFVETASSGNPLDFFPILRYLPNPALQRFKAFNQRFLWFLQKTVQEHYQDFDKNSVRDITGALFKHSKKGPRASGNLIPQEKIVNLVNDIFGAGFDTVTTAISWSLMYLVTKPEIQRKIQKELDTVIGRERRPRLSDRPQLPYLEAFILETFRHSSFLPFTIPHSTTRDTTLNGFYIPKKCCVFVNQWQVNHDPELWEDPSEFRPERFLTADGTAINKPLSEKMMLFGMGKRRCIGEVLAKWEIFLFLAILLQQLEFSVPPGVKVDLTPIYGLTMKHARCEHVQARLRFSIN
# [20] = target: Sodium channel protein type 9 subunit alpha (Homo sapiens, UniProt Q15858); test: Inhibition of Nav1.7 channel (unknown origin) at half inactivation state at -120 mV conditioning pulse by voltage clamp electrophysiological recording
# [21] = system: DRG neuron; test: Modulation of CFA-induced male ICR mouse DRG neuron excitability assessed as reduction in action potential firing frequency at 10 uM by whole cell […] assay; assay type: functional, cell-based
# [22] = system: Rattus norvegicus; test: Anesthesia recovery in Sprague-Dawley rat assessed as effect on recovery time of righting reflex at 19 mg/kg administered as continuous infusion followed by maintenance at 3.25 mg/kg/min for 0 to 20 mins, 2.5 mg/kg/min for 20 to 30 mins and 2 mg/kg/min for 30 to 60 mins; assay type: functional, organism-based; details: route par
# T1 sequence (Q9Y5Y9 whole entry): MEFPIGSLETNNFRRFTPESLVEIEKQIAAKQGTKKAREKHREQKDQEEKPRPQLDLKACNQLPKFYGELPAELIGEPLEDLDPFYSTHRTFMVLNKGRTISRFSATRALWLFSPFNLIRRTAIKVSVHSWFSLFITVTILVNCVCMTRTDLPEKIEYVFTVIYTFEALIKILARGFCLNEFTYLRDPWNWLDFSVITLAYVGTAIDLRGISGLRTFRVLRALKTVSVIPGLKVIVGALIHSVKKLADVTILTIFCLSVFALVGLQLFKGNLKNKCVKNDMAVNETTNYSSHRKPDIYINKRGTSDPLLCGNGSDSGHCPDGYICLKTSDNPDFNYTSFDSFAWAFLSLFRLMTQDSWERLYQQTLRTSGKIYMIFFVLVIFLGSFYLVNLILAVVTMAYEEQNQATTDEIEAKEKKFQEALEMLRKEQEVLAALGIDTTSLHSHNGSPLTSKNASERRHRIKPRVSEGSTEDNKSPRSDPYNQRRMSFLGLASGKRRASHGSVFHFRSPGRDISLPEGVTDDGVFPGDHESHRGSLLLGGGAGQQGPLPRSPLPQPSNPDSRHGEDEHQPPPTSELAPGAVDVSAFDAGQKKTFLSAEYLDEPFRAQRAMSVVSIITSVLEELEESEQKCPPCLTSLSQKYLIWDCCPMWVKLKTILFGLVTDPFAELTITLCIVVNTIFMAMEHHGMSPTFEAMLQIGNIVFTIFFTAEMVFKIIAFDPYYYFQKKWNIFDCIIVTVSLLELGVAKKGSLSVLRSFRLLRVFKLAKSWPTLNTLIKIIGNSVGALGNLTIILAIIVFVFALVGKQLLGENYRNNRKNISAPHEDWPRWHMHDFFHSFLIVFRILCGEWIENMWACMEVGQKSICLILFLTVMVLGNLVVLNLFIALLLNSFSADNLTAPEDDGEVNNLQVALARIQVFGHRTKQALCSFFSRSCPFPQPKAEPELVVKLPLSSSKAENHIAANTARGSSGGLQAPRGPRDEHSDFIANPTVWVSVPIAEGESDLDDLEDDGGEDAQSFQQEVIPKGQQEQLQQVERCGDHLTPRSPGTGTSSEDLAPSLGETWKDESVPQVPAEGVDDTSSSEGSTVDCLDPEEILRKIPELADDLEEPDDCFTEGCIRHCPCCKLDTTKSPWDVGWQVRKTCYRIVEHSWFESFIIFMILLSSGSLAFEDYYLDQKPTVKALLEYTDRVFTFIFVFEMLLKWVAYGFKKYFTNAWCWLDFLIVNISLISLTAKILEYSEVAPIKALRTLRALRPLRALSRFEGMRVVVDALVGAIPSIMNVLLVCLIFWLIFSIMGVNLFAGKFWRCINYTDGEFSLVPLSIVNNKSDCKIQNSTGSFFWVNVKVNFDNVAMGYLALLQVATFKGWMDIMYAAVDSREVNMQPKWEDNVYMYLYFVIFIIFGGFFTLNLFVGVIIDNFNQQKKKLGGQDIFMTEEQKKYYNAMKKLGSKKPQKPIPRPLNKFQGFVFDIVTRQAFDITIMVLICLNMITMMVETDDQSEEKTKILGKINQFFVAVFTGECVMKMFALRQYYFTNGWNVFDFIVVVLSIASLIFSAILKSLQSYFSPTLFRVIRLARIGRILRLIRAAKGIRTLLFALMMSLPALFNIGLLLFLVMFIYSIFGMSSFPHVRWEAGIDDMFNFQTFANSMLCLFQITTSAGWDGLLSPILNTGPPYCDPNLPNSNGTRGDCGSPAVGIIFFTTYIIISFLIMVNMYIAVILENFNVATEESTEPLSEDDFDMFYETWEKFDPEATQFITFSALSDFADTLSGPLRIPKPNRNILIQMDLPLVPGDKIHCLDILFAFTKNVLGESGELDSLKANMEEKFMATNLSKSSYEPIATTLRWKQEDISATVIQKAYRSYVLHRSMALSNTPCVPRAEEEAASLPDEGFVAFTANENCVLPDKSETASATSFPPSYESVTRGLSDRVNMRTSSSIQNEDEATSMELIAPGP
# T2 sequence (Q14524 whole entry): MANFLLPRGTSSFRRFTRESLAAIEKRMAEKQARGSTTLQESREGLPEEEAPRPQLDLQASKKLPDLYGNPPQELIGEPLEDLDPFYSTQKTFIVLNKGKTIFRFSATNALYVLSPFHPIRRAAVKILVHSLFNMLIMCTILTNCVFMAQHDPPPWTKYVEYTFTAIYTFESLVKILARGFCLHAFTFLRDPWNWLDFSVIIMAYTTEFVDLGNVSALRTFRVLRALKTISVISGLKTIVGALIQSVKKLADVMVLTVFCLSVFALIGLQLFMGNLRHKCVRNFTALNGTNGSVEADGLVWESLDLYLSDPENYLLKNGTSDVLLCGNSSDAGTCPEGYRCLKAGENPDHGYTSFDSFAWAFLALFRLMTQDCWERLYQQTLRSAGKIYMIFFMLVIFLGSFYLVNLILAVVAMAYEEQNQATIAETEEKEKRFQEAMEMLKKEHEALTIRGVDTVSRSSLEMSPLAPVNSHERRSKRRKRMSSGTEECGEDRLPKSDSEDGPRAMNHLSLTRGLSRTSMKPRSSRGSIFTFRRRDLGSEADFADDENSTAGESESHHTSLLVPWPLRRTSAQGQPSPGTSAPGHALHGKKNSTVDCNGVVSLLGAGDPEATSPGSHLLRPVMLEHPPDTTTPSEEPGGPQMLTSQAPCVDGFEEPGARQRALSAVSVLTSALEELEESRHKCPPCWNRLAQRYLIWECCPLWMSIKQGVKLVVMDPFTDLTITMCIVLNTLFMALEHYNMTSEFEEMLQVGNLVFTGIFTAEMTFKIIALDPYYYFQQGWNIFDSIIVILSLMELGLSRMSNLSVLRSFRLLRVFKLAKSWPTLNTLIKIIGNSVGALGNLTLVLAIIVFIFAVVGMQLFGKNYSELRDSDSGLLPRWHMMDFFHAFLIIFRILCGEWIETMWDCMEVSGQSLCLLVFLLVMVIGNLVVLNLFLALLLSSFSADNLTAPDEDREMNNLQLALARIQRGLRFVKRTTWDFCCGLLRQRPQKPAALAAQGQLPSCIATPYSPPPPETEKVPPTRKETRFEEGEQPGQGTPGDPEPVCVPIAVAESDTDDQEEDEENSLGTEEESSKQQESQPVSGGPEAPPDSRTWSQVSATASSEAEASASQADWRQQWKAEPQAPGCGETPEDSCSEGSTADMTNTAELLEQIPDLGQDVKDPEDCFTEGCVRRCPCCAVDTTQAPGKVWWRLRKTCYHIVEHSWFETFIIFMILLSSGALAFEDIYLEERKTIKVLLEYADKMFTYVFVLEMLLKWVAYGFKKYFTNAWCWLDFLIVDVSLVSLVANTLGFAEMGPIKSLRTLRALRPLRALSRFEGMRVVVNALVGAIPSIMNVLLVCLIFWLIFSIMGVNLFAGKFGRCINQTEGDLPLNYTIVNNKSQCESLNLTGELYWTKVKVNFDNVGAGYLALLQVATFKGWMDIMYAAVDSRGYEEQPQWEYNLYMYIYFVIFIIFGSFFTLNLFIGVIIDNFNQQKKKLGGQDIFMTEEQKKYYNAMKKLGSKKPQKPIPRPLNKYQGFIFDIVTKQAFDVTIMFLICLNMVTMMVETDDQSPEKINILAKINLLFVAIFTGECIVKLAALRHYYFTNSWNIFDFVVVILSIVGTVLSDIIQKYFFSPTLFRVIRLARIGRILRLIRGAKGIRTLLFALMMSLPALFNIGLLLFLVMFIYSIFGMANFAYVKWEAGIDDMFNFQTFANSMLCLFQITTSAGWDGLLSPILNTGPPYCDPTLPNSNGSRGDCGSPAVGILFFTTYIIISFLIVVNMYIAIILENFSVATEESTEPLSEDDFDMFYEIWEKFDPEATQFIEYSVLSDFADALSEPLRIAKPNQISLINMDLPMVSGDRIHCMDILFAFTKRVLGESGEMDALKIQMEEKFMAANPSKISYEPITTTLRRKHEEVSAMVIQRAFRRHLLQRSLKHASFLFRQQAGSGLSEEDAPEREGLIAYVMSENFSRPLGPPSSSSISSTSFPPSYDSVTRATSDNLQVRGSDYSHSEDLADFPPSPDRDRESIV
smiles,measurement,setting,value
CCN(CC)CCOC(=O)Oc1c(C(C)C)cccc1C(C)C.Cl,Activity,[1],Tde
same,Activity,[2],Non-Toxic
same,Activity,[3],Toxic
same,IC50,[4],1.92 µM
same,Stability,[5],Stable
same,Activity,[6],Non-Toxic
same,half-life at 1 mg/ml,[7],19.2 min
same,IC50,[8],23.5 µM
same,IC50,[9],20.5 µM
same,Activity,[10],Non-Toxic
same,Activity,[11],Non-Toxic
same,Activity,[12],Non-Toxic
same,Activity,[13],Non-Toxic
same,Activity,[14],Non-Toxic
same,IC50,[15],> 30 µM
same,Activity,[16],Non-Toxic
same,Activity,[17],Non-Toxic
same,half-life at 1 mg/ml,[18],1.7 min
same,inhibition at 10 µM,[19],26.2%
same,IC50,[20],7.43 µM
same,Activity,[21],Active
same,Activity,[22],Active
